Test results reported in patent US20140343000A1 (priority 2011, published 2014).

Test system: recombinant NL4-3 virus (Renilla luciferase in nef, Gag P373S; NLRluc) in MT-2 cells
Experiment: whole plant or invertebrate
Assay type: cell-based, HIV
Conditions: Renilla, NL43
Summary of the method: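 Cells grown in serum-supplemented RPMI were exposed to graded inhibitor concentrations during a 4-5 day infection. Antiviral effect was then derived from luminescence after adding a combined lysis and dual-luciferase substrate mixture to each well.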

| SMILES | EC50 |
| --- | --- |
| C=C(C)[C@@H]1CC[C@]2(NCCNC3CCS(=O)(=O)C3)CC[C@]3(C)[C@H](CC[C@@H]4[C@@]5(C)CC=C(c6ccc(C(=O)O)cc6)C(C)(C)[C@@H]5CC[C@]43C)[C@@H]12 (stereo partly drawn) [Example B8, 4-((1R,3aS,5aR,5bR,7aR,11aS,11bR,13aR,13bR)-3a-((2-((1,1-dioxidotetrahydrothiophen-3-yl)amino)ethyl)amino)-5a,5b,8,8,11a-pentamethyl-1-(prop-1-en-2-yl)-2,3,3a,4,5,5a,5b,6,7,7a,8,11,11a,11b,12,13,13a,13b-octadecahydro-1H-cyclopenta[a]chrysen-9-yl)benzoic acid] | < 100 nM |

Same assay, conditions: Renilla, NL43, luciferase activity in cells infected for 4-5 days with NLRluc recombinants, serial dilutions of inhibitor; class symbols (key in Table 1); read-out: EC50

| SMILES | EC50 |
| --- | --- |
| C=C(C)[C@@H]1CC[C@]2(NC(=O)NCCCN(C)C)CC[C@]3(C)[C@H](CC[C@@H]4[C@@]5(C)CC=C(c6ccc(C(=O)O)cc6)C(C)(C)[C@@H]5CC[C@]43C)[C@@H]12 [Example 10, 4-((1R,3aS,5aR,5bR,7aR,11aS,11bR,13aR,13bR)-3a-(3-(3-(dimethylamino)propyl)ureido)-5a,5b,8,8,11a-pentamethyl-1-(prop-1-en-2-yl)-2,3,3a,4,5,5a,5b,6,7,7a,8,11,11a,11b,12,13,13a,13b-octadecahydro-1H-cyclopenta[a]chrysen-9-yl)benzoic acid] | < 100 nM |
| C=C(C)[C@@H]1CC[C@]2(NC(=O)NCCc3c[nH]cn3)CC[C@]3(C)[C@H](CC[C@@H]4[C@@]5(C)CC=C(c6ccc(C(=O)O)cc6)C(C)(C)[C@@H]5CC[C@]43C)[C@@H]12 [Example 13, 4-((1R,3aS,5aR,5bR,7aR,11aS,11bR,13aR,13bR)-3a-(3-(2-(1H-imidazol-4-yl)ethyl)ureido)-5a,5b,8,8,11a-pentamethyl-1-(prop-1-en-2-yl)-2,3,3a,4,5,5a,5b,6,7,7a,8,11,11a,11b,12,13,13a,13b-octadecahydro-1H-cyclopenta[a]chrysen-9-yl)benzoic acid] | < 100 nM |
| C=C(C)[C@@H]1CC[C@]2(NC(=O)N3CCN(C(C)=O)CC3)CC[C@]3(C)[C@H](CC[C@@H]4[C@@]5(C)CC=C(c6ccc(C(=O)O)cc6)C(C)(C)[C@@H]5CC[C@]43C)[C@@H]12 [Example 41, 4-((1R,3aS,5aR,5bR,7aR,11aS,11bR,13aR,13bR)-3a-(4-acetylpiperazine-1-carboxamido)-5a,5b,8,8,11a-pentamethyl-1-(prop-1-en-2-yl)-2,3,3a,4,5,5a,5b,6,7,7a,8,11,11a,11b,12,13,13a,13b-octadecahydro-1H-cyclopenta[a]chrysen-9-yl)benzoic acid] | < 100 nM |
| C=C(C)[C@@H]1CC[C@]2(NC(=O)Cn3ccnc3)CC[C@]3(C)[C@H](CC[C@@H]4[C@@]5(C)CC=C(c6ccc(C(=O)O)cc6)C(C)(C)[C@@H]5CC[C@]43C)[C@@H]12 [Example 89, 4-((1R,3aS,5aR,5bR,7aR,11aS,11bR,13aR,13bR)-3a-(2-(1H-imidazol-1-yl)acetamido)-5a,5b,8,8,11a-pentamethyl-1-(prop-1-en-2-yl)-2,3,3a,4,5,5a,5b,6,7,7a,8,11,11a,11b,12,13,13a,13b-octadecahydro-1H-cyclopenta[a]chrysen-9-yl)benzoic acid] | < 100 nM |
| C=C(C)[C@@H]1CC[C@]2(NC(=O)CN3C(=O)OCc4ccc(Cl)cc43)CC[C@]3(C)[C@H](CC[C@@H]4[C@@]5(C)CC=C(c6ccc(C(=O)O)cc6)C(C)(C)[C@@H]5CC[C@]43C)[C@@H]12 [Example 104, 4-((1R,3aS,5aR,5bR,7aR,11aS,11bR,13aR,13bR)-3a-(2-(7-chloro-2-oxo-2,4-dihydro-1H-benzo[d][1,3]oxazin-1-yl)acetamido)-5a,5b,8,8,11a-pentamethyl-1-(prop-1-en-2-yl)-2,3,3a,4,5,5a,5b,6,7,7a,8,11,11a,11b,12,13,13a,13b-octadecahydro-1H-cyclopenta[a]chrysen-9-yl)benzoic acid] | < 100 nM |
| C=C(C)[C@@H]1CC[C@]2(NC(=O)NCCCN3CCS(=O)(=O)CC3)CC[C@]3(C)[C@H](CC[C@@H]4[C@@]5(C)CC=C(c6ccc(C(=O)O)cc6)C(C)(C)[C@@H]5CC[C@]43C)[C@@H]12 [Example 22, 4-((1R,3aS,5aR,5bR,7aR,11aS,11bR,13aR,13bR)-3a-(((3-(1,1-dioxido-4-thiomorpholinyl)propyl)carbamoyl)amino)-1-isopropenyl-5a,5b,8,8,11a-pentamethyl-2,3,3a,4,5,5a,5b,6,7,7a,8,11,11a,11b,12,13,13a,13b-octadecahydro-1H-cyclopenta[a]chrysen-9-yl)benzoic acid] | < 100 nM |
| C=C(C)[C@@H]1CC[C@]2(NCCNc3ccc(SC)cn3)CC[C@]3(C)[C@H](CC[C@@H]4[C@@]5(C)CC=C(c6ccc(C(=O)O)cc6)C(C)(C)[C@@H]5CC[C@]43C)[C@@H]12 [Example 196, 4-((1R,3aS,5aR,5bR,7aR,11aS,11bR,13aR,13bR)-5a,5b,8,8,11a-pentamethyl-3a-(2-(5-(methylthio)pyridin-2-ylamino)ethylamino)-1-(prop-1-en-2-yl)-2,3,3a,4,5,5a,5b,6,7,7a,8,11,11a,11b,12,13,13a,13b-octadecahydro-1H-cyclopenta[a]chrysen-9-yl)benzoic acid] | < 100 nM |
| C=C(C)[C@@H]1CC[C@]2(NC(=O)NCC(C)(C)N3CCOCC3)CC[C@]3(C)[C@H](CC[C@@H]4[C@@]5(C)CC=C(c6ccc(C(=O)O)cc6)C(C)(C)[C@@H]5CC[C@]43C)[C@@H]12 [Example 6, 4-((1R,3aS,5aR,5bR,7aR,11aS,11bR,13aR,13bR)-5a,5b,8,8,11a-pentamethyl-3a-(3-(2-methyl-2-morpholinopropyl)ureido)-1-(prop-1-en-2-yl)-2,3,3a,4,5,5a,5b,6,7,7a,8,11,11a,11b,12,13,13a,13b-octadecahydro-1H-cyclopenta[a]chrysen-9-yl)benzoic acid] | < 100 nM |
| C=C(C)[C@@H]1CC[C@]2(NCCN3CCN(C(=O)C(C)C)CC3)CC[C@]3(C)[C@H](CC[C@@H]4[C@@]5(C)CC=C(c6ccc(C(=O)O)cc6)C(C)(C)[C@@H]5CC[C@]43C)[C@@H]12 [Example B64, 4-((1R,3aS,5aR,5bR,7aR,11aS,11bR,13aR,13bR)-3a-((2-(4-isobutyrylpiperazin-1-yl)ethyl)amino)-5a,5b,8,8,11a-pentamethyl-1-(prop-1-en-2-yl)-2,3,3a,4,5,5a,5b,6,7,7a,8,11,11a,11b,12,13,13a,13b-octadecahydro-1H-cyclopenta[a]chrysen-9-yl)benzoic acid] | < 100 nM |

Same assay, conditions: Renilla, NL43, luciferase activity in cells infected for 4-5 days with NLRluc recombinants, serial dilutions of inhibitor; numeric values; read-out: EC50

| SMILES | EC50 |
| --- | --- |
| C=C(C)[C@@H]1CC[C@]2(NC(=O)N[C@@H](CO)C(=O)O)CC[C@]3(C)[C@H](CC[C@@H]4[C@@]5(C)CC=C(c6ccc(C(=O)O)cc6)C(C)(C)[C@@H]5CC[C@]43C)[C@@H]12 [Example 18, 4-((1R,3aS,5aR,5bR,7aR,11aS,11bR,13aR,13bR)-3a-(3-((S)-1-carboxy-2-hydroxyethyl)ureido)-5a,5b,8,8,11a-pentamethyl-1-(prop-1-en-2-yl)-2,3,3a,4,5,5a,5b,6,7,7a,8,11,11a,11b,12,13,13a,13b-octadecahydro-1H-cyclopenta[a]chrysen-9-yl)benzoic acid] | 250 nM |
